Measurements as given in patent US10882856B2 (BeiGene, Ltd., priority 2017, dated 2021).

Legend:
[1] = biological target: T1, IDO1 (Homo sapiens, UniProt P14902); experiment: Hela cell-based IDO1 assay; conditions: Hela cells
Summary of the method: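 HeLa cells were seeded at 8000 per well in 96-well plates in phenol red-free DMEM with 10% FBS. After 4 hours, DMSO-diluted compound dilutions were added with IFN-γ (final 100 ng/mL) and 0.4 mM L-Trp, and cells were kept 48 hours at 37 °C, 5% CO2. Supernatant was deproteinised with trichloroacetic acid, and kynurenine was measured at 480 nm after adding 2% 4-(dimethylamino)benzaldehyde. Potency came from four-parameter logistic fits in XLfit.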

[2] = biological target: T2, TDO (Homo sapiens, UniProt P48775); experiment: TDO enzymatic assay; format: biochemical; conditions: read-out: Enzyme IC50 TDO
T2 construct: His tag (C); made in house; host or cells: E. coli
Summary of the method: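 Recombinant C-terminally His-tagged TDO purified from E. coli (100 nM) was tested with 0.5 mM L-tryptophan (Km concentration). Otherwise the IDO1 enzymatic set-up was used: ascorbic acid, methylene blue, catalase, and potassium phosphate pH 7.5 with BSA, incubated 1.5 hours. N'-formylkynurenine absorbance was read continuously at 321 nm, and activity was taken as the slope. IC50 was calculated from remaining enzyme activity across increasing compound concentrations.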

[3] = biological target: T3, cellular TDO2 in HEK293-TDO2 cells (Homo sapiens, UniProt P48775); experiment: 293-TDO2 cell-based assay (Kyn colorimetric); conditions: 48 hours of incubation
T3 construct: expressed in transfected cells; host or cells: HEK293 (ATCC), stably transfected
Summary of the method: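 HEK293 cells stably expressing TDO2 (10000/well, phenol red-free DMEM, 10% FBS) were dosed 4 h after plating and incubated 48 h at 37° C. Supernatant Kyn was measured after TCA precipitation by 4-(dimethylamino)benzaldehyde colour at 480 nm. IC50 came from four-parameter logistic fits.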

[4] = biological target: T1, IDO1; experiment: IDO1 enzymatic assay; format: biochemical; design: His tag (N); made in house; host or cells: E. coli; conditions: read-out: Enzyme IC50 IDO1
Summary of the method: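 Compound was incubated with 50 nM His-tagged IDO1 from E. coli, 1.3 mM D-tryptophan, 5 mM L-ascorbic acid, methylene blue and 0.4 mg/mL catalase in 50 mM potassium phosphate pH 7.5, 0.1% BSA, at 24 °C for 1.5 hours. Activity was the slope of N'-formylkynurenine formation read continuously at 321 nm for 1 hour. IC50 was obtained from remaining activity versus compound concentration.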

T1 sequence (P14902 whole entry): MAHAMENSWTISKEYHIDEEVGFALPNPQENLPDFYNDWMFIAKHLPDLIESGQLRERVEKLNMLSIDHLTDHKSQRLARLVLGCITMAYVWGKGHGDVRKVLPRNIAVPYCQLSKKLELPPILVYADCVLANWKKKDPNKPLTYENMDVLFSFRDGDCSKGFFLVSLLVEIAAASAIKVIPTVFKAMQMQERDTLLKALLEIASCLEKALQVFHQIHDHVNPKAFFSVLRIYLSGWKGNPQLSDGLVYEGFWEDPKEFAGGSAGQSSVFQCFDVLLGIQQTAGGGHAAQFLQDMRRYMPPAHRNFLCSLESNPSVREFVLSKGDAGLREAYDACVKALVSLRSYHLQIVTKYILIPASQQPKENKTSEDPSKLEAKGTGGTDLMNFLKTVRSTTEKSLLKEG
T2 sequence (P48775 whole entry): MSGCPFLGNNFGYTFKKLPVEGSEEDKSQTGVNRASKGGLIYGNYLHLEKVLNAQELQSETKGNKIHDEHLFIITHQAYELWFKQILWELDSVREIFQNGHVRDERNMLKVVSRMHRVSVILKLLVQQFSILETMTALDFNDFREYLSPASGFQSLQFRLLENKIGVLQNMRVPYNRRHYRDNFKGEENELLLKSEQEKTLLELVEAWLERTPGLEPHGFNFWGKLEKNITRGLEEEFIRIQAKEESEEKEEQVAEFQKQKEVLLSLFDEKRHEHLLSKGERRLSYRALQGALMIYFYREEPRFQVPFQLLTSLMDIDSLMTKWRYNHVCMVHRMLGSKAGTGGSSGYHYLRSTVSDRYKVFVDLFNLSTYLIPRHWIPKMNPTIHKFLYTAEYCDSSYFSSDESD
T3 sequence (P48775 whole entry): as above

SMILES | EC50 [1] [nM] | IC50 [2] [nM] | EC50 [3] [nM] | IC50 [4] [nM]
N#Cc1ccc([C@H]2CC[C@H](C(O)c3c(C4CC4)ccn4cncc34)CC2)cc1 (single isomer, unassigned) [Example C106a] | 141 | 5200 | > 10000 | 20
Oc1ccc([C@H]2CC[C@H](C(O)c3c(C4CC4)ccc4cncn34)CC2)cc1 (single isomer, unassigned) [Example D106a] | 21 | 4000 | > 10000 | 11
O[C@H](c1c(C2CC2)ccn2cncc12)[C@H]1CC[C@H](c2ccccc2F)CC1 (single isomer, unassigned) [Example C108a] | 112 | 5100 | > 10000 | 28
O[C@H](c1c(C2CC2)ccc2cncn12)[C@H]1CC[C@H](c2ccc(Br)cc2)CC1 (single isomer, unassigned) [Example D118a] | 306 | 7700 | > 10000 | 25
O[C@H](c1c(C2CC2)ccn2cncc12)[C@H]1CC[C@H](c2ccccc2C(F)(F)F)CC1 (single isomer, unassigned) [Example C116a] | 500 | 6300 | > 10000 | 77
O[C@@H](c1c(C2CC2)ccc2cncn12)[C@H]1CC[C@@H](c2ccc(OC3CCOCC3)cc2)CC1 [Example D114a, (R)-(6-cyclopropylimidazo[1,5-a]pyridin-5-yl)((1 s,4S)-4-(4-((tetrahydro-2H-pyran-4-yl)oxy)phenyl)cyclohexyl)methanol] | 572 | 1700 | > 10000 | 17
COCCOc1ccc([C@H]2CC[C@H]([C@H](O)c3c(C4CC4)ccn4cncc34)CC2)cc1 (single isomer, unassigned) [Example C103a] | 167 | 10000 | > 10000 | 21
O[C@H](c1c(C2CC2)ccc2cncn12)[C@H]1CC[C@H](c2ccc(-c3ccccc3)cc2)CC1 (single isomer, unassigned) [Example D119a] | 344 | 5100 | > 10000 | 34
N#Cc1ccc([C@H]2CC[C@H]([C@H](O)c3c(C4CC4)ccc4cncn34)CC2)cc1 (single isomer, unassigned) [Example D110a] | 186 | 6400 | > 10000 | 16
O[C@H](c1c(C2CC2)ccn2cncc12)[C@H]1CC[C@H](c2cccc(F)c2)CC1 (single isomer, unassigned) [Example C109a] | 49 | 8500 | > 10000 | 43
O[C@H](c1c(C2CC2)ccc2cncn12)[C@H]1CC[C@H](c2cccc(F)c2)CC1 (single isomer, unassigned) [Example D156a] | 31 | 12000 | > 10000 | 20
Cc1ccccc1[C@H]1CC[C@H]([C@H](O)c2c(C3CC3)ccn3cncc23)CC1 (single isomer, unassigned) [Example C112a] | 183 | 5100 | > 10000 | 40
OC(c1c(C2CC2)ccc2cncn12)[C@H]1CC[C@H](c2ccc3ccsc3c2)CC1 (single isomer, unassigned) [Example D134a] | 135 | 6100 | > 10000 | 15
O[C@H](c1c(C2CC2)ccc2cncn12)[C@H]1CC[C@H](c2cccc3ncccc32)CC1 (single isomer, unassigned) [Example D141a] | 12 | 6100 | > 10000 | 15
COc1ccc([C@H]2CC[C@H]([C@H](O)c3c(C4CC4)ccc4cncn34)CC2)cc1 (single isomer, unassigned) [Example D102a] | 29 | 5300 | > 10000 | 14
O[C@H](c1c(C2CC2)ccc2cncn12)[C@H]1CC[C@H](c2ccc(OC(F)(F)F)cc2)CC1 (single isomer, unassigned) [Example D105a] | 631 | 11000 | > 10000 | 44
O[C@H](c1c(C2CC2)ccc2cncn12)[C@H]1CC[C@H](c2cccc(Cl)c2)CC1 (single isomer, unassigned) [Example D116a] | 43 | 9400 | > 10000 | 15
O[C@H](c1c(C2CC2)ccc2cncn12)[C@H]1CC[C@H](c2ccc(F)c3ccccc32)CC1 (single isomer, unassigned) [Example D137a] | 36 | 7400 | > 10000 | 19
O[C@H](c1c(C2CC2)ccn2cncc12)[C@H]1CC[C@H](c2ccc(C(F)(F)F)cc2)CC1 (single isomer, unassigned) [Example C115a] | 2400 | 11000 | > 10000 | 67
O[C@H](c1c(C2CC2)ccn2cncc12)[C@H]1CC[C@H](c2ccc(OC(F)(F)F)cc2)CC1 (single isomer, unassigned) [Example C105a] | 1140 | 9100 | > 10000 | 48
O[C@H](c1c(C2CC2)ccn2cncc12)[C@H]1CC[C@H](c2ccc(OC3COC3)cc2)CC1 (single isomer, unassigned) [Example C117a] | 131 | 3400 | > 10000 | 15
O[C@H](c1c(C2CC2)ccc2cncn12)[C@H]1CC[C@H](c2ccc(F)cc2)CC1 (single isomer, unassigned) [Example D104a] | 23 | 7500 | > 10000 | 18
CC(C)c1ccc2cncn2c1[C@@H](O)[C@H]1CC[C@H](c2ccc(Cl)cc2)CC1 (single isomer, unassigned) [Example D115a] | 83 | 10000 | > 10000 | 34
O[C@H](c1c(C2CC2)ccc2cncn12)[C@H]1CC[C@H](c2ccc(Oc3ccccc3)cc2)CC1 (single isomer, unassigned) [Example D120a] | 370 | 6700 | > 10000 | 80
O[C@H](c1c(C2CC2)ccc2cncn12)[C@H]1CC[C@H](c2ccccc2)CC1 (single isomer, unassigned) [Example D101a] | 35 | 9200 | > 10000 | 14
O[C@H](c1c(C2CC2)ccn2cncc12)[C@H]1CC[C@H](c2ccc(OC3CCCC3)cc2)CC1 (single isomer, unassigned) [Example C118a] | 147 | 6200 | > 10000 | 63
OCCn1cc(-c2ccc(N3CCC(C(O)c4c(C5CC5)ccn5cncc45)CC3)cc2)cn1 (stereo not shown) [Example C153, 2-(4-(4-(4-((7-cyclopropylimidazo[1,5-a]pyridin-8-yl)(hydroxy)methyl)piperidin-1-yl)phenyl)-1H-pyrazol-1-yl)ethan-1-ol] | 1050 | 6700 | > 10000 | 47
O[C@H](c1c(C2CC2)ccc2cncn12)[C@H]1CC[C@H](c2ccc3ccccc3c2)CC1 (single isomer, unassigned) [Example D136a] | 254 | 16000 | > 10000 | 21
